The values below come from patent US9745320B2, “Five-and-six-membered heterocyclic compound, and preparation method, pharmaceutical composition and use thereof” (SHANGHAI CHEMEXPLORER CO., LTD., priority 2013, dated 2017).

Holding throughout (assay type): biochemical
In one assay the target is JAK1 (Homo sapiens, UniProt P23458). As to the kind of experiment: JAK 1 enzymatic inhibitory activity IC50 assay (Caliper conversion rate). The conditions noted are these: Km ATP, 28° C., 1 hour. A digest of the protocol:
(§1)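 Human JAK1 or JAK2 enzyme was preincubated with graded compound (2% DMSO) in HEPES pH 7.5/Brij-35/DTT buffer (JAK1 also with Triton), then peptide substrate, 10 mM MgCl2 and ATP at Km were added. Reactions ran 1 hour at 28° C; Caliper conversion rate gave inhibition, averaged over two tests, for IC50.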

The target in the next assay is T1, JAK3 (Homo sapiens, UniProt P52333).
T1 sequence (P52333 1-1124): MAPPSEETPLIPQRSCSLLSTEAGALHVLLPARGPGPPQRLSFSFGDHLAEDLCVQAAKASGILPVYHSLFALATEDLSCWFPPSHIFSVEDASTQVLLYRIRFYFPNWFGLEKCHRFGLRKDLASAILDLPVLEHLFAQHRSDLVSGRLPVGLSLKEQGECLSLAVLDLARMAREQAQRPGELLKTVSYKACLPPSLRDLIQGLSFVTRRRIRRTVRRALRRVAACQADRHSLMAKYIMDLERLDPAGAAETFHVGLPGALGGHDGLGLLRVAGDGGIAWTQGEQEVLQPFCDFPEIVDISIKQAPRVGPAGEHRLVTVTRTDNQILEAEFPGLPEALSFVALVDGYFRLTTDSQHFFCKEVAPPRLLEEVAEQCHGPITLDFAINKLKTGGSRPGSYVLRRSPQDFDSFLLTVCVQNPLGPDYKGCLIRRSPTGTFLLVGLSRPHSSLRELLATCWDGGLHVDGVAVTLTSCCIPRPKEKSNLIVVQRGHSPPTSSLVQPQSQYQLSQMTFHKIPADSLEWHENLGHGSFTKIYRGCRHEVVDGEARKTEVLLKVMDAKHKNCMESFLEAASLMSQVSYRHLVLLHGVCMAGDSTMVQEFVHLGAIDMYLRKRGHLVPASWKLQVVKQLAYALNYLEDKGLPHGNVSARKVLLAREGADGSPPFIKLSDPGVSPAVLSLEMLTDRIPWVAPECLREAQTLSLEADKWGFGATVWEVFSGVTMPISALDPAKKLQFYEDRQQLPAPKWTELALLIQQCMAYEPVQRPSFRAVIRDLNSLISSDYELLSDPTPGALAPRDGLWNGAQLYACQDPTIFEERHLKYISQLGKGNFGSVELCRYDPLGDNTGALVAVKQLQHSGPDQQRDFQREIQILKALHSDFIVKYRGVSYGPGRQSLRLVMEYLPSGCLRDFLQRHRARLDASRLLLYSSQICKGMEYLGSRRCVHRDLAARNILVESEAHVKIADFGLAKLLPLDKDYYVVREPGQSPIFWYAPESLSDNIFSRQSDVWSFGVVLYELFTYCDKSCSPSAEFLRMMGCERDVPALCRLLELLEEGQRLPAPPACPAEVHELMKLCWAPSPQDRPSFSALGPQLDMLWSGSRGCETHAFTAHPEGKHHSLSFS
Put plainly: JAK 3 enzymatic inhibitory activity IC50 assay (Caliper conversion rate). The conditions noted are these: Km ATP, 28° C., 1 hour; read-out: JAK 3 enzymatic inhibitory activity IC50.

The target in a further assay is JAK2 (Homo sapiens, UniProt O60674). As to the kind of experiment: JAK 2 enzymatic inhibitory activity IC50 assay (Caliper conversion rate). Particulars: Km ATP, 28° C., 1 hour. A digest of the protocol: as §1
Chain of JAK2 (O60674 whole entry, species assumed): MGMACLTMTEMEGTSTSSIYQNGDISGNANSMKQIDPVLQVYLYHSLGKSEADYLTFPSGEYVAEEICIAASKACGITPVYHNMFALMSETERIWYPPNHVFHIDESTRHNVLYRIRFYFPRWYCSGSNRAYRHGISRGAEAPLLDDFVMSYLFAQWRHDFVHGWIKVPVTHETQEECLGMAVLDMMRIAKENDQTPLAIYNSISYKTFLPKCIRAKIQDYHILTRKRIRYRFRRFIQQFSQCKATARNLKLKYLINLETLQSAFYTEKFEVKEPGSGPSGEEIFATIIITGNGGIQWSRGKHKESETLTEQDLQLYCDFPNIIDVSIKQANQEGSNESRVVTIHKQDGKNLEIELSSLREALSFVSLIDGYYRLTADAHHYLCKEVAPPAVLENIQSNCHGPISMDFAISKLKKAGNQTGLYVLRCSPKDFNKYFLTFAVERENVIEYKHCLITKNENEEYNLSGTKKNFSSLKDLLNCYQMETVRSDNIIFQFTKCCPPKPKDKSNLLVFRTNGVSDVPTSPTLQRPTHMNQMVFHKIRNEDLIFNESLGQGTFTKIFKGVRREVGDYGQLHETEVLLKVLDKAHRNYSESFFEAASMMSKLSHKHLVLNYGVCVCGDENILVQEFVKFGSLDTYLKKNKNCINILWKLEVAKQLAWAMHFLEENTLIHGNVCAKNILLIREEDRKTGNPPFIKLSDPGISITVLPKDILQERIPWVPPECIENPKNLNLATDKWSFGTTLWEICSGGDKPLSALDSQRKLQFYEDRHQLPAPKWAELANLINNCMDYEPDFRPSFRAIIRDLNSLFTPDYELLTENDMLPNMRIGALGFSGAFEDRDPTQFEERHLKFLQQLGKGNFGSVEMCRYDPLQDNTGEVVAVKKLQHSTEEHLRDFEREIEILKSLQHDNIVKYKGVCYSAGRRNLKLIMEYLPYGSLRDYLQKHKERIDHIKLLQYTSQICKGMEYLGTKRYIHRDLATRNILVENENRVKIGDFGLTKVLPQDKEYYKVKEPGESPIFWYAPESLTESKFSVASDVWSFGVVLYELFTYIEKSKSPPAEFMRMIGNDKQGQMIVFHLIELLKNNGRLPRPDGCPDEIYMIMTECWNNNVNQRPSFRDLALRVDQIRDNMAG

Chain of JAK1 (P23458 whole entry, species assumed): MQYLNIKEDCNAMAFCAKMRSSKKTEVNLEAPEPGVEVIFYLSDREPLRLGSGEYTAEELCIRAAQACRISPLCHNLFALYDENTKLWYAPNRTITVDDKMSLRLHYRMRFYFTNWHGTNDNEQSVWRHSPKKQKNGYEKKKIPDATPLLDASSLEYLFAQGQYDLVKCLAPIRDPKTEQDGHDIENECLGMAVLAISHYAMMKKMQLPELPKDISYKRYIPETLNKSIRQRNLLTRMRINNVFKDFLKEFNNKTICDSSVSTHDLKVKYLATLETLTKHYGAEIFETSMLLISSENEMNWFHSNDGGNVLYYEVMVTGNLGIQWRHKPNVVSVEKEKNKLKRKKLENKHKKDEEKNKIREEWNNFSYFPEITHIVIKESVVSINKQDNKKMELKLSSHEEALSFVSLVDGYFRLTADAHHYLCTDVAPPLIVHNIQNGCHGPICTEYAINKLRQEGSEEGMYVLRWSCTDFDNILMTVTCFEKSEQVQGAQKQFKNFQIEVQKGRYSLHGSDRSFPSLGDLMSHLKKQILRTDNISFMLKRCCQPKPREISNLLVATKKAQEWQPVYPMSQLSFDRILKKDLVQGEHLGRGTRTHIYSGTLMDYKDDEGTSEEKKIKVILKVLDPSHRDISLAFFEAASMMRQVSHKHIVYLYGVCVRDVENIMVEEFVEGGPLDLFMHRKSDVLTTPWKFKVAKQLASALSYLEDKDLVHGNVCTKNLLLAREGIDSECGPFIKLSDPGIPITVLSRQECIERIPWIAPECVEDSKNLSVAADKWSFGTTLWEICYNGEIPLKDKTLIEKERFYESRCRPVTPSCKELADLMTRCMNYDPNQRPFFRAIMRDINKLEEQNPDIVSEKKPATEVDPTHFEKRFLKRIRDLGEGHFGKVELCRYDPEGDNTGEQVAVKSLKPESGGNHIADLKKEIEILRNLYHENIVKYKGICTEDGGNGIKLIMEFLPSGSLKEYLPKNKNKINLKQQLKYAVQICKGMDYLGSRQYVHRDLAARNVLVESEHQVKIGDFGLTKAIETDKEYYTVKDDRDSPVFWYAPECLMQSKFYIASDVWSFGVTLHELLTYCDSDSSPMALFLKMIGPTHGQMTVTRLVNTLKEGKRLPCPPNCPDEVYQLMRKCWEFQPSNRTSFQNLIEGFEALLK

Broadly, the IC50 is the concentration at which inhibition is half-maximal. In the case of `Cn1cc(Nc2nc(-c3cnn(C4(CC#N)CC(F)C4)c3)c3sccc3n2)cn1` (stereo not drawn) [Compound T-77, 2-(3-Fluoro-1-(4-(2-((1-methyl-1H-pyrazol-4-yl)amino)thieno[3,2-d]pyrimidin-4-yl)-1H-pyrazol-1-yl)cyclobutyl)acetonitrile], the IC50 on JAK1 is 50 to 500 nM; on JAK3, 50 to 500 nM; at JAK2, less than 50 nM.
Regarding `CCS(=O)(=O)N1CC(CC#N)(n2cc(-c3nc(Nc4cnn(C5CCOCC5)c4)nc4ccsc34)cn2)C1` [Compound T-38, 2-(1-(Ethylsulfonyl)-3-(4-(2-((1-(tetrahydro-2H-pyran-4-yl)-1H-pyrazol-4-yl)amino)thieno[3,2-d]pyrimidin-4-yl)-1H-pyrazol-1-yl)azetidin-3-yl)acetonitrile], the IC50 against JAK1, on JAK3 and against JAK2 was less than 50 nM in each case.
Regarding `CCS(=O)(=O)N1CC(CC#N)(n2cc(-c3nc(Nc4cc(C)[nH]n4)nc4ccsc34)cn2)C1` [Compound T-72, 2-(1-(Ethylsulfonyl)-3-(4-(2-((5-methyl-1H-pyrazol-3-yl)amino)thieno[3,2-d]pyrimidin-4-yl)-1H-pyrazol-1-yl)azetidin-3-yl)acetonitrile], the half-inhibitory concentration (IC50) against JAK1, on JAK3 and on JAK2 was less than 50 nM each time.
